Earlier results, collected in patent US20080003281A1, “Modified Release Tablet Formulations for Proton Pump Inhibitors” (ASTRAZENECA AB, priority 2004, published 2008).

Test system: gastric acid
Settings: 40 mg esomeprazole dose split into 20 mg bid

Compound: COc1ccc2nc([S@@+]([O-])Cc3ncc(C)c(OC)c3C)[nH]c2c1 [esomeprazole, (−)-enantiomer of omeprazole]
- nocturnal gastric acid suppression: significantly improved
